Holding throughout (format): cell-based, mouse
Experiment [1] has as its system β-galactosidase in CMV-LacZ C2C12 myotubes. Description: CMV-LacZ secondary screen in C2C12 myotubes (β-Gal stabilizing assay). The settings on record: for CMV-LACZ in Myotubes, signal relative to DMSO: C2C12 CMV-LacZ myotubes, fold relative to DMSO; for CMV-LACZ in Myotubes, value relative to DMSO: SU9516 analogs, C2C12 CMV-LacZ, N=2. The essentials: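 β-gal stabilization was measured in C2C12 myoblasts or myotubes stably transfected with a CMV-driven LacZ construct, using the FDG β-gal assay. Compounds were tested in dose-response at 0.5, 1, 5, 10, 20 and 40 μM, with two replicates per point.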

The subject of experiment [2] is β-galactosidase in CMV-LacZ C2C12 myoblasts. Description: CMV-LacZ secondary screen in C2C12 myoblasts (β-Gal stabilizing assay). The conditions noted are these: for CMV-LACZ in Myoblasts (β-galactosidase activity relative to DMSO): CMV-LacZ C2C12 myoblasts; for CMV-LACZ in Myoblasts, value relative to DMSO: SU9516 analogs, C2C12 CMV-LacZ, N=2. In short, it runs like this:
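Stable CMV-LacZ C2C12 clone; six-point curve 0.5–40 μM; duplicates.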

The subject of experiment [3] is α7 integrin (LacZ reporter in α7+/LacZ myotubes). Description: Myotube α7 integrin FDG assay (Burkin assay in myotubes, 96-well). The settings on record: for Burkin Assay in Myotubes, value relative to DMSO: SU9516 analogs, 96-well, N=3-6.
In experiment [4] the test system is α7 integrin (LacZ reporter in α7βgal+/− myoblasts). As to the kind of experiment: Myoblast α7+/LacZ integrin FDG assay (Burkin assay in myoblasts, 96-well). The conditions noted are these: 96-well; for Burkin Assay in Myoblasts, signal relative to DMSO: α7+/LacZ myoblasts; for Burkin Assay in Myoblasts, value relative to DMSO: SU9516 analogs, N=3-6.

Turning to `c1ccc(-c2cc(-c3nc4ccccc4[nH]3)c3ccccc3n2)cc1` [MLS000554416-01], the “CMV-LACZ in Myotubes, signal relative to DMSO” value in experiment [1] (0.5 uM) was determined as 1.0019; in experiment [1] (1 uM) it was 0.9629; in experiment [1] (5 uM), 0.8969; in experiment [1] (10 uM), 0.9798; in experiment [1] (20 uM) it was 0.8760; in experiment [1] (40 uM), 0.7060. Moreover, the “CMV-LACZ in Myoblasts (β-galactosidase activity relative to DMSO)” value in experiment [2] (0.5 uM) is listed as 1.1310; in experiment [2] (1 uM), 1.3983; in experiment [2] (5 uM), 0.8594; in experiment [2] (10 uM) it was 1.1123; in experiment [2] (20 uM), 1.1077; in experiment [2] (40 uM), 0.8611. The “Burkin Assay in Myotubes, α7 integrin LacZ reporter signal relative to DMSO” value in experiment [3] (0.5 uM) was 0.9146; in experiment [3] (1 uM), 0.9261; in experiment [3] (5 uM) it was 0.8366; in experiment [3] (10 uM), 0.9334; in experiment [3] (20 uM) it was 0.6816; in experiment [3] (40 uM), 0.4915. The “Burkin Assay in Myoblasts, signal relative to DMSO” value in experiment [4] (0.5 uM) was 1.211; in experiment [4] (1 uM) it was 1.0679; in experiment [4] (5 uM), 0.9915; in experiment [4] (10 uM) it was 0.9591; in experiment [4] (20 uM) it was 1.087; in experiment [4] (40 uM), 0.8248.

Take `Cc1ncc(/C=C2\C(=O)Nc3ccccc32)[nH]1` [MLS000834757-01]: the “CMV-LACZ in Myotubes, value relative to DMSO” value was 1.0238 in experiment [1] (0.5 uM); 0.8695 in experiment [1] (1 uM); 1.0546 in experiment [1] (5 uM); 1.1047 in experiment [1] (10 uM); 1.0789 in experiment [1] (20 uM); 1.3600 in experiment [1] (40 uM). The “CMV-LACZ in Myoblasts, value relative to DMSO” value in experiment [2] (0.5 uM) worked out at 1.0367; in experiment [2] (1 uM), 0.9300; in experiment [2] (5 uM) it was 0.9101; in experiment [2] (10 uM), 1.0942; in experiment [2] (20 uM) it was 0.8115; in experiment [2] (40 uM), 1.1026. The “Burkin Assay in Myotubes, value relative to DMSO” value worked out at 1.019 in experiment [3] (0.5 uM); 0.943 in experiment [3] (1 uM); 1.03 in experiment [3] (5 uM); 0.9537 in experiment [3] (10 uM); 0.9989 in experiment [3] (20 uM); 0.9464 in experiment [3] (40 uM). Also, the “Burkin Assay in Myoblasts, value relative to DMSO” value in experiment [4] (0.5 uM) was determined as 1.0102; in experiment [4] (1 uM) it was 1.003; in experiment [4] (5 uM), 1.125; in experiment [4] (10 uM) it was 0.9651; in experiment [4] (20 uM), 1.117; in experiment [4] (40 uM) it was 1.021.

In the case of `CC1Cc2ccccc2N1C(=O)CSc1nnc(N)s1` (stereo not drawn) [MLS001160611-01], the “CMV-LACZ in Myotubes, signal relative to DMSO” value is on record as 0.9762 in experiment [1] (0.5 uM); 1.2419 in experiment [1] (1 uM); 0.8306 in experiment [1] (5 uM); 0.9661 in experiment [1] (10 uM); 1.0240 in experiment [1] (20 uM); 0.9190 in experiment [1] (40 uM). Besides, the “CMV-LACZ in Myoblasts (β-galactosidase activity relative to DMSO)” value stood at 1.2070 in experiment [2] (0.5 uM); 0.8157 in experiment [2] (1 uM); 1.0117 in experiment [2] (5 uM); 1.0340 in experiment [2] (10 uM); 0.8144 in experiment [2] (20 uM); 1.0389 in experiment [2] (40 uM). In addition, the “Burkin Assay in Myotubes, α7 integrin LacZ reporter signal relative to DMSO” value in experiment [3] (0.5 uM) came out at 0.9452; in experiment [3] (1 uM), 0.8628; in experiment [3] (5 uM), 1.006; in experiment [3] (10 uM), 1.169; in experiment [3] (20 uM) it was 0.8397; in experiment [3] (40 uM) it was 1.24. The “Burkin Assay in Myoblasts, signal relative to DMSO” value in experiment [4] (0.5 uM) amounted to 1.1058; in experiment [4] (1 uM), 0.9767; in experiment [4] (5 uM), 1.004; in experiment [4] (10 uM), 1.115; in experiment [4] (20 uM), 0.9749; in experiment [4] (40 uM) it was 0.9267.

On to `N#Cc1nc(COc2ccccc2)oc1N1CCCC1` [MLS000036988-01], for which the “CMV-LACZ in Myotubes, signal relative to DMSO” value in experiment [1] (0.5 uM) came out at 0.9867; in experiment [1] (1 uM), 0.8905; in experiment [1] (5 uM), 0.8979; in experiment [1] (10 uM), 1.0868; in experiment [1] (20 uM) it was 0.7116; in experiment [1] (40 uM) it was 0.5021. For the same compound, the “CMV-LACZ in Myoblasts (β-galactosidase activity relative to DMSO)” value in experiment [2] (0.5 uM) was found to be 1.0767; in experiment [2] (1 uM) it was 1.0846; in experiment [2] (5 uM), 0.9702; in experiment [2] (10 uM) it was 1.0435; in experiment [2] (20 uM), 0.8796; in experiment [2] (40 uM), 0.6578. Also, the “Burkin Assay in Myotubes, α7 integrin LacZ reporter signal relative to DMSO” value is given as 0.8553 in experiment [3] (0.5 uM); 0.7577 in experiment [3] (1 uM); 0.8099 in experiment [3] (5 uM); 0.8223 in experiment [3] (10 uM); 0.4172 in experiment [3] (20 uM); 0.104 in experiment [3] (40 uM). Besides, the “Burkin Assay in Myoblasts, signal relative to DMSO” value in experiment [4] (0.5 uM) was 1.189; in experiment [4] (1 uM), 1.0825; in experiment [4] (5 uM), 0.8657; in experiment [4] (10 uM), 0.8256; in experiment [4] (20 uM), 0.9023; in experiment [4] (40 uM), 0.6581.

Turning to `Cc1cccc2c(N=Nc3ccc(S(=O)(=O)Nc4ccc(Cl)cc4)cc3[N+](=O)[O-])c(O)[nH]c12` [MLS000393762-01], the “CMV-LACZ in Myotubes, signal relative to DMSO” value amounted to 0.8653 in experiment [1] (0.5 uM); 0.9326 in experiment [1] (1 uM); 1.0005 in experiment [1] (5 uM); 1.0049 in experiment [1] (10 uM); 1.0800 in experiment [1] (20 uM); 1.0578 in experiment [1] (40 uM). Moreover, the “CMV-LACZ in Myoblasts (β-galactosidase activity relative to DMSO)” value turned out to be 0.9560 in experiment [2] (0.5 uM); 0.9351 in experiment [2] (1 uM); 1.0114 in experiment [2] (5 uM); 1.0198 in experiment [2] (10 uM); 0.3793 in experiment [2] (20 uM); 0.4467 in experiment [2] (40 uM). In addition, the “Burkin Assay in Myotubes, α7 integrin LacZ reporter signal relative to DMSO” value is given as 0.9402 in experiment [3] (0.5 uM); 0.925 in experiment [3] (1 uM); 0.9795 in experiment [3] (5 uM); 1.007 in experiment [3] (10 uM); 0.7705 in experiment [3] (20 uM); 0.7046 in experiment [3] (40 uM). For the same compound, the “Burkin Assay in Myoblasts, signal relative to DMSO” value in experiment [4] (0.5 uM) stood at 0.9738; in experiment [4] (1 uM), 0.9428; in experiment [4] (5 uM), 0.7799; in experiment [4] (10 uM) it was 0.6957; in experiment [4] (20 uM), 0.5961; in experiment [4] (40 uM), 0.4696.

For the origin of these results see patent publication US9980943B2, “Methods of treating muscular dystrophy” (BOARD OF REGENTS OF THE NEVADA SYSTEM OF HIGHER EDUCATION, …, priority 2013, dated 2018).
